According to patent US8927726B2, “N-cyclopropyl-N-piperidinyl-amide derivatives, pharmaceutical compositions containing them and uses thereof” (Boehringer Ingelheim International GmbH, priority 2012, dated 2015):

Assays:
[1] = biological target: T1, mutant form of the human GPR119 receptor (Homo sapiens, UniProt Q8TDV5, S329A/T327A); assay: LANCE cAMP-384 assay in HEK293 cells stably expressing mutant human GPR119; format: cell-based; conditions: mutant human GPR119 (SEQ ID No. 1), 20 min at 37 C
T1 construct: X1, the printed 24-residue N-terminal leader ([…]) that replaces Met1; (N); expressed in transfected cells
T1 sequence (Q8TDV5 2-335 T327A/S329A): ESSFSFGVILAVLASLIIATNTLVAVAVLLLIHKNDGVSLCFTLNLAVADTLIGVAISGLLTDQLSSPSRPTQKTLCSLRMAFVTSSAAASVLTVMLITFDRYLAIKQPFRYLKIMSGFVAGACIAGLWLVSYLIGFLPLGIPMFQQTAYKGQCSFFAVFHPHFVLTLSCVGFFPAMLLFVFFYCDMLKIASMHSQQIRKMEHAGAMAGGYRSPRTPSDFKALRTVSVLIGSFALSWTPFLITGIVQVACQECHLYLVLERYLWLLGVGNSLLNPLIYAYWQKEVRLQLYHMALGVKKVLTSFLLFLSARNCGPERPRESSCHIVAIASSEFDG
Description: Quantitative detection of cAMP accumulation from cells expressing human GPR119 receptor is achieved using Perkin Elmer's LANCE cAMP-384 Kit (Cat #AD0264) according to the manufacturer's protocol. Briefly, HEK293 cells stably expressing a mutant form of the human GPR119 receptor as assay tool (Methionine 1 replaced with the amino acid sequence […], and T327 & S329 changed to alanines; SEQ ID No. 1) are grown to 50-70% confluency in cell culture media (DMEM, 10% heat inactivated Fetal Bovine Serum, 50 I.U./mL penicillin, 50 μg/mL streptomycin, 10 mM HEPES, 20 μg/mL G418 Sulfate). On the day of the assay, GPR119 stable HEK293 cells are lifted from the tissue culture plate and 1000 cells/well are incubated along with various concentrations of test compounds for 20 min at 37+ C. Detection Buffer (50mM HEPES, 10mM calcium chloride, 0.35% Triton X-100, 1 mg/mL BSA) containing cAMP-specific antibody is then added to all wells and allowed to equilibrate in the dark for 10 minutes at room temperature. Upon equilibration, Detection Buffer containing europium-labeled cAMP tracer complex is added to all wells and allowed to react for 1 hour at room temperature. After 1 hour, bound europium-labeled cAMP tracer is measured using a Perkin Elmer Envision plate reader. The quantity of cAMP generated in each well is derived from a standard curve. EC50 is determined using nonlinear regression analysis of the cAMP values over a range of agonist concentration (12 points spanning the range from 30 μM to 100 pM).

[2] = biological target: T2, human GPR119 (Homo sapiens, UniProt Q8TDV5); assay: AlphaScreen cAMP assay in MIN6 cells stably transfected with human GPR119; format: cell-based; conditions: Min-6/hGPR119 cells, 45 minutes incubation at room temperature
T2 construct: expressed in transfected cells; host or cells: MIN6 (mouse insulinoma) cells, stably transfected
T2 sequence (Q8TDV5 1-335): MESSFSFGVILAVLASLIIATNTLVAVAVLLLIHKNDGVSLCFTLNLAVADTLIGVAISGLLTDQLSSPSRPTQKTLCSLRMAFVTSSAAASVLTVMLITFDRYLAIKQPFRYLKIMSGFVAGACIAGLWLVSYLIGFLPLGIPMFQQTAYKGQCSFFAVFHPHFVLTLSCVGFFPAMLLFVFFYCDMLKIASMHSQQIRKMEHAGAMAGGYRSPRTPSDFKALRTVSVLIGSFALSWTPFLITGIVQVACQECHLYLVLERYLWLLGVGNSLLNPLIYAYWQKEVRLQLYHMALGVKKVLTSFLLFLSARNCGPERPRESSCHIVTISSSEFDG
Description: The compounds of formula I according to the invention modulate the activity of the G-protein-coupled receptor GPR119. The effect of the compounds on the activation of GPR119 and on the stimulation of intracellular cAMP concentration is determined using the AlphaScreen cAMP Assay Kit (Cat. No. #6760625R) made by PerkinElmer.
MIN6 cells [Miyazaki Jet al. Endocrinology. 1990 July; 127(1):126-32] are stably transfected with an expression vector for human GPR119 cDNA (Acc. No. NP_848566). Min-6 / hGPR119 cells are cultured in DMEM, 10% FBS, 50 μM β-mercaptoethanol, 0.3 mg/mL Geniticin, 2 mM GlutaMAX at 37° C. 5% CO2. For the assay, the cells are seeded in Optiplates (white, 384-well, 160W-barcoded, TC, sterile with lid, Cat. No. #6007688 (Perkin Elmer); 10000 cells/well; 50 μl). The plates covered with lids are then incubated for 24 hours at 37° C./5% CO2. After the medium is aspirated from the wells completely, 10 μl of the test compound are added, the compounds are diluted using stimulating buffer (140 mM NaCl, 3.6 mM KCl, 0.5 mM NaH2PO4, 0.5 mM MgSO4, 1.5 mM CaCl2, 10 mM Hepes, 5 mM NaHCO3; pH 7.4. 0.5 mM IBMX and 0.1% BSA, the final DMSO concentration is 1%). After 45 minutes incubation at room temperature (approx. 20° C.), the cAMP concentrations are determined using the AlphaScreen cAMP Assay Kit (Cat.No.# 6760625R from PerkinElmer).

SMILES	EC50 [1]	EC50 [2]
Cc1nnnn1-c1ccc(C(=O)N(C2CC2)[C@@H]2CCN(CC3(C(F)(F)F)CC3)C[C@@H]2F)cn1 (single isomer, unassigned) [Example 12]	12 nM	–
N#Cc1ccc(-c2cc(C(=O)N(C3CC3)C3CCN(CC4(C(F)(F)F)CC4)CC3)on2)c(F)c1 [Example 7, 3-(4-Cyano-2-fluoro-phenyl)-isoxazole-5-carboxylic acid cyclopropyl-[1-(1-trifluoromethyl-cyclopropylmethyl)-piperidin-4-yl]-amide]	–	9 nM
Cc1ncn(-c2cnc(C(=O)N(C3CC3)[C@@H]3CCN(CC4(C(F)(F)F)CC4)C[C@@H]3F)cn2)n1 (single isomer, unassigned) [Example 15]	30 nM	–
CC(C)(F)CN1CCC(N(C(=O)c2cc(-c3ccc(C#N)cc3F)on2)C2CC2)CC1 [Example 10, 5-(4-Cyano-2-fluoro-phenyl)-isoxazole-3-carboxylic acid cyclopropyl-[1-(2-fluoro-2-methyl-propyl)-piperidin-4-yl]-amide]	–	19 nM
Cc1nccn1-c1ncc(C(=O)N(C2CC2)[C@@H]2CCN(CC3(C(F)(F)F)CC3)C[C@@H]2F)cn1 (single isomer, unassigned) [Example 14]	27 nM	–
O=C(c1ccc(-c2cnco2)cc1)N(C1CC1)C1CCN(CC2(C(F)(F)F)CC2)CC1 [Example 3, N-Cyclopropyl-4-oxazol-5-yl-N-[1-(1-trifluoromethyl-cyclopropylmethyl)-piperidin-4-yl]-benzamide]	–	79 nM
O=C(c1ccc(-n2cncn2)c(F)c1)N(C1CC1)[C@@H]1CCN(CC2(C(F)(F)F)CC2)C[C@@H]1F (single isomer, unassigned) [Example 11]	10 nM	–
O=C(c1cnc(-n2cncn2)cn1)N(C1CC1)[C@@H]1CCN(CC2(C(F)(F)F)CC2)C[C@@H]1F (single isomer, unassigned) [Example 13]	–	2 nM
O=C(c1ccc(-c2cnco2)cc1)N(C1CC1)C1CCN(CCC(F)(F)F)CC1 [Example 2, N-Cyclopropyl-4-oxazol-5-yl-N-[1-(3,3,3-trifluoro-propyl)-piperidin-4-yl]-benzamide]	–	643 nM
CC(C)(F)CN1CCC(N(C(=O)c2cc(-c3ccc(C#N)cc3)on2)C2CC2)CC1 [Example 6, 5-(4-Cyano-phenyl)-isoxazole-3-carboxylic acid cyclopropyl-[1-(2-fluoro-2-methyl-propyl) -piperidin-4-yl]-amide]	–	50 nM
CC(C)(F)CN1CCC(N(C(=O)c2cc(-c3ccc(C#N)cc3F)no2)C2CC2)CC1 [Example 8, 3-(4-Cyano-2-fluoro-phenyl)-isoxazole-5-carboxylic acid cyclopropyl-[1-(2-fluoro-2-methyl-propyl)-piperidin-4-yl]-amide]	–	22 nM
CC(C)(F)CN1CCC(N(C(=O)c2ccc(-c3cnco3)cc2)C2CC2)CC1 [Example 1, N-Cyclopropyl-N-[1-(2-fluoro-2-methyl-propyl)-piperidin-4-yl]-4-oxazol-5-yl-benzamide]	–	456 nM
CC(C)(F)CN1CCC(N(C(=O)c2ccc(-c3cnco3)c(F)c2)C2CC2)CC1 [Example 4, N-Cyclopropyl-3-fluoro-N[1-(2-fluoro-2-methyl-propyl)-piperidin-4-yl]-4-oxazol-5-yl-benzamide]	–	63 nM
N#Cc1ccc(-c2cc(C(=O)N(C3CC3)C3CCN(CC4(C(F)(F)F)CC4)CC3)no2)c(F)c1 [Example 9, 5-(4-Cyano-2-fluoro-phenyl)-isoxazole-3-carboxylic acid cyclopropyl-[1-(1-trifluoromethyl-cyclopropylmethyl)-piperidin-4-yl]-amide]	–	6 nM
N#Cc1ccc(-c2cc(C(=O)N(C3CC3)C3CCN(CC4(C(F)(F)F)CC4)CC3)no2)cc1 [Example 5, 5-(4-Cyano-phenyl)-isoxazole-3-carboxylic acid cyclopropyl-[1-(1-trifluoromethyl-cyclopropylmethyl) -piperidin-4-yl]-amide]	–	27 nM
